Results from publication PMC11053168, “Agonist-selective activation of individual G-proteins by muscarinic receptors” (Scientific Reports, 2024).

Experiments:
M1 receptor [1] = target: T1, M1 receptor (Homo sapiens, UniProt P11229); assay: BRET real-time monitoring of Gq/11 activation via M1 in HEK293T/17 cells; format: cell-based; set-up: expressed in transfected cells; host or cells: HEK293T/17 cells, transient transfection; conditions: for Activation of Gαq/11 types: saturating concentration (100 μM; 1 mM for JB-12-2, JB-13-1); for Activation magnitude at G11, % of CBC / Activation magnitude at G15, % of CBC / Activation magnitude at Gq, % of CBC / Activation magnitude at Gα14, % of CBC: 100 μM
T1 sequence (P11229 1-460): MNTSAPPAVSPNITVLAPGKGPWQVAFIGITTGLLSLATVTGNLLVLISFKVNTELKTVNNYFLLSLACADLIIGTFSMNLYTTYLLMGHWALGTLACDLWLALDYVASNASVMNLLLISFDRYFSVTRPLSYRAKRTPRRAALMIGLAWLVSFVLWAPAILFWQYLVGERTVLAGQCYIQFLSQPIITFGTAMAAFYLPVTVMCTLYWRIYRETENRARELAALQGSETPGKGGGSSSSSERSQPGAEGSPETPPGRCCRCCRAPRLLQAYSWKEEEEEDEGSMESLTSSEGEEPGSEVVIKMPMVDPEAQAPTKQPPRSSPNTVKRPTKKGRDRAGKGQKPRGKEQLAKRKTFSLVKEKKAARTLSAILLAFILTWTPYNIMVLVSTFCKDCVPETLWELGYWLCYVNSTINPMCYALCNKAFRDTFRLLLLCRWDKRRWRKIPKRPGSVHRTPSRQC
Description: HE/K293T17 cells were obtained from The Global Bioresource Center ATCC (Manassas, VA, USA). Cells were grown in 100 mm petri dishes in Dulbecco’s modified Eagle’s medium (DMEM) supplemented with 10% fetal bovine serum (FBS), MEM non-essential amino acids, 1 mM sodium pyruvate, and antibiotics (100 units/ml penicillin and 100 μg/ml streptomycin) at 37 °C in a humidified incubator containing 5% CO2[41]. Transfection was performed according to Masuho et al.[41]. […] Gα14 subunit was co-transfected with Ric-8A chaperone (0.21 μg). Cells were cotransfected with a pcDNA3.1 construct encoding the catalytic subunit of pertussis toxin (PTX-S1) (0.21 μg) and constructs encoding Gα15, Gα14, Gα11, Gαq to ensure that the small BRET signals were not contaminated by the possible recruitment of endogenous Gαi/o proteins. The empty vector pcDNA3.1 was used to normalize the amount of DNA in each transfection.
To examine the activation of G-protein signalling in live cells, agonist-dependent cellular measurements of BRET between Venus-Gβ1γ2 and masGRK3ct-Nluc were performed as described by Masuho et al.[41]. […] Cells were harvested by centrifugation at 500×g for 5 min and were resuspended in BRET buffer. About 50,000 to 100,000 cells per well were distributed in 96-well flat-bottomed white microplates (Greiner Bio-One) in a volume of 25 µl. […] BRET measurements were made with a microplate reader (POLARstar Omega, BMG Labtech) equipped with two emission photomultiplier tubes, which enabled the detection of two emissions simultaneously with the highest possible resolution of 20 ms per data point. All measurements were performed at room temperature. […] The average baseline value (basal BRET ratio) recorded before stimulation of cells with an agonist was subtracted from the experimental BRET signal values to obtain the ΔBRET ratio.

[2] = target: individual subtypes of muscarinic receptors (M1–M5); set-up: method as in PMID 31910288; conditions: summary of Table 1 over subtypes; read-out: Affinity; cited from earlier work
M1 receptor [3] = target: T1, M1 receptor; set-up: expressed in transfected cells; method as in PMID 31910288; conditions: CHO expressing M1; cited from earlier work
M3 receptor = M3 receptor (Homo sapiens, UniProt P20309); set-up: expressed in transfected cells; method as in PMID 31910288; conditions: CHO expressing M3; cited from earlier work
M3 receptor, sequence (P20309 whole entry): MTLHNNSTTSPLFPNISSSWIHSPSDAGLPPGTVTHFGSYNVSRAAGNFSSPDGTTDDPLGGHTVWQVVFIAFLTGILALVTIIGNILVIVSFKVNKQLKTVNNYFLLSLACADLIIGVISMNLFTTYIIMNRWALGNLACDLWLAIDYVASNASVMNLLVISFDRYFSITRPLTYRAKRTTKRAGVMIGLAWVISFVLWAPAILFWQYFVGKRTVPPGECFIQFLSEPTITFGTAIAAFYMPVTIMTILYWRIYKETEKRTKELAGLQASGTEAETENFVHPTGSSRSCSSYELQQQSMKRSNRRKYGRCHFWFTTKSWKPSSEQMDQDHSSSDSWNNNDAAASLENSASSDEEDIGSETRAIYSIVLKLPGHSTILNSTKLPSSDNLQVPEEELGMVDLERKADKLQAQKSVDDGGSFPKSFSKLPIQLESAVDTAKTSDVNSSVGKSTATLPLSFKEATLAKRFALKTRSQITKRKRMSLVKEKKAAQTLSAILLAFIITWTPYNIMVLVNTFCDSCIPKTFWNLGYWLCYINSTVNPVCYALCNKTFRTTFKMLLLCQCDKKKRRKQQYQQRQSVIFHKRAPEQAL

[4] = test system: individual subtypes of muscarinic receptors (M1–M5); assay: [3H]NMS competition binding, summary over subtypes; set-up: species or system human; conditions: summary of Table 1 over subtypes
Description: CHO cells stably transfected with the genes of individual subtypes of human muscarinic receptors (M1–M5, wild types) were purchased from Missouri S&T cDNA resource center (Rolla, MO, USA) (https://www.cdna.org/home.php?cat=177). Cells were cultured as described previously by Randakova et al.[33]. Cells were grown to confluence in 75 cm^2 flasks in Dulbecco’s modified Eagle’s medium DMEM (Thermo Fisher Scientific; LOT: 2556745) supplemented with 10% fetal bovine serum and geneticin in concentration 50 µg/ml at 37 °C in a humidified incubator containing 5% CO2. The medium was supplemented with 5 mM butyrate for the last 24 h of culture to increase receptor expression. Cells were washed with (phosphate-buffered saline (PBS), mechanically harvested by scraper and centrifugated 1000 × g for 5 min. Cell pellets were kept at − 80 °C.
Membranes were prepared as described previously by Randakova et al.[33]. […]
Non-specific binding was determined in the presence of 10 μM unlabelled atropine. […] The filtration plates were counted in the Microbeta scintillation counter (PerkinElmer). […] The inhibition constant KI was calculated according to Eq. (2). […]

| Compound | Activation of Gαq/11 types (M1 receptor [1]) | Activation magnitude at G11, % of CBC (M1 receptor [1]) | Activation magnitude at G15, % of CBC (M1 receptor [1]) | Activation magnitude at Gq, % of CBC (M1 receptor [1]) | Activation magnitude at Gα14, % of CBC (M1 receptor [1]) | also measured |
| --- | --- | --- | --- | --- | --- | --- |
| c1csc(C[N+]23CCC(CC2)CC3)c1 [JB-8A] | did not activate any Gαq/11 type | – | – | – | – | – |
| C[N+]1(Cc2cccs2)CCOCC1 [JB-12-2] | activated all Gαq/11 types | – | – | – | – | – |
| COC(=O)C1=CCCN(Cc2cccs2)C1 [JB-13-1] | did not activate any Gαq/11 type | – | – | – | – | – |
| C[N+]1(Cc2cccs2)CC=CCC1 (stereo not drawn) [JR-6, 1-methyl-1-[(thiophen-2-yl)methyl]-1,2,3,6-tetra hydropyridin-1-ium] | – | approximately 50% | approximately 50% | approximately 50% | approx. 10% | Ki [2]: ~10 µM; IP production (M1 receptor [3]): weak IP production; IP production (M3 receptor): marginal response |
| C[N+]1(Cc2ccc(Cl)s2)CC=CCC1 (stereo not drawn) [PN-152, 1-[(5-chlorothiophen-2-yl)methyl]-1-methyl-1,2,3,6-tetrahydropyridin-1-ium] | – | approx. 30% | approx. 30% | approx. 30% | did not activate | Affinity, times higher than JR-6 [4]: three to ten |
